According to BindingDB's records for doi:10.1111/cbdd.12902 (Shahid Bahonar University of Kerman, 2017):

Legend:
[1] = target: Carboxylic ester hydrolase (Equus caballus, UniProt Q9N1N9); assay: Cholinesterases Inhibition Assay
Method: (§1) The stock solutions of the target compounds were prepared in a mixture of DMSO (1 ml) and ethanol (9 ml) and diluted with 0.1 MKH2PO4/K2HPO4 buffer (pH 8.0) to obtain final concentrations. […] of substrate (acetylthiocholine iodide 0.075 m) was added to the test solution to obtain final concentration of […]. All experiments were performed based on the previously described method.[Nadri et al., Bioorg. […] Spectrophotometric measurements were performed on a UV Unico double-beam spectrophotometer. The same method was also taken for BuChE inhibition assay.

Acetylcholinesterase = Acetylcholinesterase (Electrophorus electricus, UniProt O42275); assay: Cholinesterases Inhibition Assay
Method: as §1

Sequence of Acetylcholinesterase (O42275 whole entry): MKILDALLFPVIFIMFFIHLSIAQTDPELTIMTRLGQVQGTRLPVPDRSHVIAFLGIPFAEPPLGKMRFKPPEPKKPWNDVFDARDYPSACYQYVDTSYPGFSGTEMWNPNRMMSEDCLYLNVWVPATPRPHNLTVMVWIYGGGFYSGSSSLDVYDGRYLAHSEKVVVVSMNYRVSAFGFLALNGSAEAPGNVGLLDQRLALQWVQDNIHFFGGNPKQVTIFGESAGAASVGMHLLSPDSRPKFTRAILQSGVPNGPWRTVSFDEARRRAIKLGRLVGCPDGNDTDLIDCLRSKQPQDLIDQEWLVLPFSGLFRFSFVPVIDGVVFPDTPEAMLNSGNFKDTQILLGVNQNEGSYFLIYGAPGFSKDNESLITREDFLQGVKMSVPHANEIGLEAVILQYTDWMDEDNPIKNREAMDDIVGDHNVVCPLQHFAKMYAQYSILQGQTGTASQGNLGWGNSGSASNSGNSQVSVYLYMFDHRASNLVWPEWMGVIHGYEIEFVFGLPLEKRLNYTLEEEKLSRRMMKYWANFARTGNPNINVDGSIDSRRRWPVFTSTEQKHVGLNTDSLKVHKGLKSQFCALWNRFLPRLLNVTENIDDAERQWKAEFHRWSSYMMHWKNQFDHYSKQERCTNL
Sequence of Carboxylic ester hydrolase (Q9N1N9 whole entry): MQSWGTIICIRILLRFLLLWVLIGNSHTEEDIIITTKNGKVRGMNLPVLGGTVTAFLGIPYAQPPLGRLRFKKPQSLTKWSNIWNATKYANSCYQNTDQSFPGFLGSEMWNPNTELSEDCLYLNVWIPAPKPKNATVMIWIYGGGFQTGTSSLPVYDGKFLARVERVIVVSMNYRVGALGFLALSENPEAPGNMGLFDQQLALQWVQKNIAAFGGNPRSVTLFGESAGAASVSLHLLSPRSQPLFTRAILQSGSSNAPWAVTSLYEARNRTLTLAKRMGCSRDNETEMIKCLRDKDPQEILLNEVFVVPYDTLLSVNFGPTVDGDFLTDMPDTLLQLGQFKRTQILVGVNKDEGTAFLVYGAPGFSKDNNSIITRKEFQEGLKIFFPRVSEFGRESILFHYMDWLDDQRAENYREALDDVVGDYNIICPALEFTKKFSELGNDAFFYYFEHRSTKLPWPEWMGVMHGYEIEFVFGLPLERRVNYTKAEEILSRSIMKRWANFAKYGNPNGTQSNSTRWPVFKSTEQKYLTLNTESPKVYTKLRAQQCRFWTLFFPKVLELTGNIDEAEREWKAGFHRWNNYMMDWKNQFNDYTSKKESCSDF

Q: c1ccc(N2CCN(Cc3ccc(-c4nc5ccccc5o4)cc3)CC2)cc1 [2-(4-((4-Phenylpiperazine-1-yl)methyl)phenyl)benzo[d]oxazole (6h)] was tested. Which IC50 [1] did it give?
A: Its IC50 is > 100 µM.

Q: What about the IC50 (Acetylcholinesterase) of the same compound?
A: The IC50 was > 100 µM.

Q: Which results are given for c1ccc2oc(-c3ccc(CN4CCCC4)cc3)nc2c1 [2-(4-((Pyrrolidin-1-yl)methyl)phenyl)benzo[d]oxazole (6j)]?
A: IC50 [1]: 8.1 µM; IC50 (Acetylcholinesterase): 1.35 µM

Q: Which results are given for c1ccc(CN2CCC(NCc3ccc(-c4nc5ccccc5o4)cc3)CC2)cc1 [N-((4-(benzo[d]oxazol-2-yl)phenyl)methyl)-1-benzylpiperidin-4-amine (6n)]?
A: IC50 [1]: 50.1 µM; IC50 (Acetylcholinesterase): 7.76 µM

Q: Which results are given for CCN1CCN(Cc2ccc(-c3nc4ccccc4o3)cc2)CC1 [2-(4-((4-Ethylpiperazin-1-yl)methyl)phenyl)benzo[d]oxazole (6g)]?
A: IC50 [1]: > 100 µM; IC50 (Acetylcholinesterase): 38.2 µM

Q: Which results are given for c1ccc2oc(-c3ccc(CN4CCNCC4)cc3)nc2c1 [2-(4-((Piperazin-1-yl)methyl)phenyl)benzo[d]oxazole (6e)]?
A: IC50 [1]: 21.5 µM; IC50 (Acetylcholinesterase): 3.45 µM

Q: How did the IC50 [1] turn out when CN(Cc1ccccc1)Cc1ccc(-c2nc3ccccc3o2)cc1 [(4-(Benzo[d]oxazol-2-yl)phenyl)-N-benzyl-N-methylmethanamine (6l)] was run?
A: Its IC50 is > 100 µM.

Q: What about the IC50 (Acetylcholinesterase) of the same compound?
A: Its IC50 is 30.8 µM.

Q: c1ccc2oc(-c3ccc(CN4CCOCC4)cc3)nc2c1 [2-(4-(Morpholinomethyl)phenyl)benzo[d]oxazole (6c)] was tested. Which IC50 [1] did it give?
A: The IC50 was > 100 µM.

Q: And the IC50 (Acetylcholinesterase)?
A: Its IC50 is 20.1 µM.

Q: With CN1CCN(Cc2ccc(-c3nc4ccccc4o3)cc2)CC1 [2-(4-((4-Methylpiperazin-1-yl)methyl)phenyl)benzo[d]oxazole (6f)] as the compound, how does the IC50 [1] read?
A: The IC50 was > 100 µM.

Q: And the IC50 (Acetylcholinesterase)?
A: Its IC50 is 62.2 µM.

Q: Which IC50 [1] does the source give for c1ccc2oc(-c3ccc(CN4CCCCC4)cc3)nc2c1 [2-(4-((Piperidin-1-yl)methyl)phenyl)benzo[d]oxazole (6a)] here?
A: Its IC50 is 6.6 µM.

Q: What about the IC50 (Acetylcholinesterase) of the same compound?
A: The IC50 was 1.03 µM.

Q: With c1ccc2oc(-c3ccc(CN4CCSCC4)cc3)nc2c1 [2-(4-(Thiomorpholinomethyl)phenyl)benzo[d]oxazole (6d)] as the compound, how does the IC50 [1] read?
A: The IC50 was 16.9 µM.

Q: And the IC50 (Acetylcholinesterase)?
A: The IC50 was 2.55 µM.

Q: c1ccc(CN2CCN(Cc3ccc(-c4nc5ccccc5o4)cc3)CC2)cc1 [2-(4-((4-Benzylpiperazin-1-yl)methyl)phenyl)benzo[d]oxazole (6i)] was tested. Which IC50 [1] did it give?
A: The IC50 was > 100 µM.

Q: And the IC50 (Acetylcholinesterase)?
A: The IC50 was > 100 µM.

Q: Which results are given for c1ccc(CNCc2ccc(-c3nc4ccccc4o3)cc2)cc1 [(4-(Benzo[d]oxazol-2-yl)phenyl)-Nbenzylmethylamine (6k)]?
A: IC50 [1]: > 100 µM; IC50 (Acetylcholinesterase): 25.4 µM

Q: How did the IC50 [1] turn out when CCN(Cc1ccccc1)Cc1ccc(-c2nc3ccccc3o2)cc1 [N-((4-(benzo[d]oxazol-2-yl)phenyl)methyl)-N-benzylethanamine (6m)] was run?
A: The IC50 was > 100 µM.

Q: What about the IC50 (Acetylcholinesterase) of the same compound?
A: Its IC50 is 56.4 µM.

Q: What does the source list for c1ccc(CC2CCN(Cc3ccc(-c4nc5ccccc5o4)cc3)CC2)cc1 [2-(4-((4-Benzylpiperidin-1-yl)methyl)phenyl)benzo[d]oxazole (6b)]?
A: IC50 [1]: > 100 µM; IC50 (Acetylcholinesterase): > 100 µM
